# Reference: patent publication US8841233B2, “Herbicidal compositions comprising 4-amino-3-chloro-5-fluoro-6-(4-chloro-2-fluoro-3-methoxyphenyl) pyridine-2-carboxylic acid or a derivative thereof and 4-hydroxyphenyl-pyruvate dioxygenase (HPPD) inhibitors” (Dow Agrosciences LLC, priority 2012, dated 2014)
# System: CYPIR
# Assay: Post-emergence foliar-applied weed control, greenhouse (Example I)
# Type: in vivo, Cyperus iria L.
# Description: Evaluation of Post-emergence Foliar-Applied Herbicidal Mixtures for Weed Control in Direct Seeded Rice
# Seeds or nutlets of the desired test plant species were planted in a soil matrix prepared by mixing a loam or sandy loam soil (e.g., 28.6 percent silt, 18.8 percent clay, and 52.6 percent sand, with a pH of about 5.8 and an organic matter content of about 1.8 percent) and calcareous grit in an 80 to 20 ratio. The soil matrix was contained in plastic pots with a volume of 1 quart and a surface area of 83.6 square centimeters (cm^2). When required to ensure good germination and healthy plants, a fungicide treatment and/or other chemical or physical treatment was applied. The plants were grown for 8-22 days in a greenhouse with an approximate 14 h photoperiod which was maintained at about 29° C. during the day and 26° C. during the night. Nutrients (Peters Excel® 15-5-15 5-Ca 2-Mg and iron chelate) were applied in the irrigation solution as needed and water was added on a regular basis. Supplemental lighting was provided with overhead metal halide 1000-Watt lamps as necessary. The plants were employed for testing when they reached the first through fourth true leaf stage.
# Treatments consisted of the acid or esters of 4-amino-3-chloro-5-fluoro-6-(4-chloro-2-fluoro-3-methoxy-phenyl)pyridine-2-carboxylic acid (Compound A), each formulated as an SC (suspension concentrate), and various herbicidal components alone and in combination. Forms of Compound A were applied on an acid equivalent basis.
# Other herbicidal components were applied on an active ingredient basis and included 4-hydroxyphenyl pyruvate dioxygenase (HPPD)-inhibiting herbicides mesotrione formulated as Callisto®, sulcotrione formulated as Mikado®, pyrazolynate formulated as Sunbird® 10% GR, and benzobicyclon formulated as Benzobicyclon 3.5%.
# Treatment requirements were calculated based upon the rates being tested, the concentration of active ingredient or acid equivalent in the formulation, and a 12 mL application volume at a rate of 187 L/ha.
# For treatments comprised of formulated compounds, measured amounts of compounds were placed individually in 25 mL glass vials and diluted in a volume of 1.25% (v/v) Agri-Dex® crop oil concentrated to obtain 12× stock solutions. […] Application solutions were prepared by adding an appropriate amount of each stock solution (e.g., 1 mL) and diluted to the appropriate final concentrations with the addition of 10 mL of an aqueous mixture of 1.25% (v/v) crop oil concentrate so that the final spray solutions contained 1.25+/−0.05% (v/v) crop oil concentrate.
# For treatments comprised of formulated and technical compounds, weighed amounts of the technical materials were placed individually in 25 mL glass vials and dissolved in a volume of 97:3 v/v acetone/DMSO to obtain 12× stock solutions, and measured amounts of the formulated compounds were placed individually in 25 mL glass vials and diluted in a volume of 1.5% (v/v) crop oil concentrate or water to obtain 12× stock solutions. […] Application solutions were prepared by adding an appropriate amount of each stock solution (e.g., 1 mL) and diluted to the appropriate final concentrations with the addition of an appropriate amount of an aqueous mixture of 1.5% (v/v) crop oil concentrate so that the final spray solutions contained 1.25% (v/v) crop oil concentrate. As required, additional water and/or 97:3 v/v acetone/DMSO was added to individual application solutions so that the final acetone and DMSO concentrations of the application solutions being compared were 8.1% and 0.25%, respectively.
# All stock solutions and applications solutions were visually inspected for compound compatibility prior to application. Spray solutions were applied to the plant material with an overhead Mandel track sprayer equipped with a 8002E nozzles calibrated to deliver 187 L/ha over an application area of 0.503 m^2 at a spray height of 18 to 20 inches (46 to 50 cm) above average plant canopy height. […]
Compound,Visual Weed Control (%) - 20 DAA CYPIR Obs (4.38 gae/ha),Visual Weed Control (%) - 20 DAA CYPIR Obs (8.75 gae/ha),Visual Weed Control (%) - 20 DAA CYPIR Obs (17.5 gae/ha),Visual Weed Control (%) - 22 DAA CYPIR Obs (4.38 gae/ha),Visual Weed Control (%) - 22 DAA CYPIR Obs (8.75 gae/ha)
"COc1c(Cl)ccc(-c2nc(C(=O)O)c(Cl)c(N)c2F)c1F [Compound A Acid, 4-amino-3-chloro-6-(4-chloro-2-fluoro-3-methoxyphenyl)-5-fluoropyridine-2-carboxylic acid]",75%,90%,90%,,
"COc1c(Cl)ccc(-c2nc(C(=O)OCc3ccccc3)c(Cl)c(N)c2F)c1F [Compound A Benzyl Ester, benzyl ester of 4-amino-3-chloro-5-fluoro-6-(4-chloro-2-fluoro-3-methoxy-phenyl)pyridine-2-carboxylic acid]",,,,10%,65%
